Patent EP0468504B1, “A novel antibiotic, balhimycin, a process for its production and its use as pharmaceutical” (HOECHST AKTIENGESELLSCHAFT, priority 1990, dated 1992)
Where a name gives a salt, the structure may show the parent alone.

How the values were obtained:
Experiment in all cases: MIC, antibacterial activity
Format in all cases: cell-based
S. aureus 209 P = test system: S. aureus 209 P
S. aureus (MethR) = test system: S. aureus (MethR)
S. aureus 3066 (MethR) = test system: S. aureus 3066 (MethR)
S. aureus E 690 (MethR) = test system: S. aureus E 690 (MethR)
[1] = test system: Streptococcus faecalis ATCC 29212
S. faec. D 21777 = test system: S. faec. D 21777
S. faec. D Endococcen = test system: S. faec. D Endococcen
S. faecium D-59 = test system: S. faecium D-59
S. faecium D-65 = test system: S. faecium D-65
Staph. epidermidis 178 = test system: Staph. epidermidis 178
S. epi. 825 = test system: S. epi. 825
[2] = test system: S. epi. 823 (Teicoplanin R)
Staph. haemolyticus 712 = test system: Staph. haemolyticus 712
[3] = test system: S. haemo. 809 (Teicoplanin R)
E. coli 9632 = test system: E. coli 9632
P. vulgaris = test system: P. vulgaris
Ps. aeruginosa = test system: Ps. aeruginosa

CNC(CC(C)C)C(=O)NC1C(=O)NC(CC(N)=O)C(=O)NC2C(=O)NC3C(=O)NC(C(=O)NC(C(=O)O)c4cc(O)cc(O)c4-c4cc3ccc4O)C(OC3C[C@](C)(N)C(=O)C(C)O3)c3ccc(c(Cl)c3)Oc3cc2cc(c3OC2O[C@H](CO)C(O)[C@H](O)C2O)Oc2ccc(cc2Cl)C1O (some centres unmarked) [Balhimycin trifluoroacetate, Balhimycin]
MIC (S. aureus 209 P): 0.39 µg/mL | MIC (S. aureus (MethR)): 0.39 µg/mL | MIC (S. aureus 3066 (MethR)): 0.78 µg/mL | MIC (S. aureus E 690 (MethR)): 0.39 µg/mL | MIC [1]: 1.56 µg/mL | MIC (S. faec. D 21777): 0.78 µg/mL | MIC (S. faec. D Endococcen): 0.78 µg/mL | MIC (S. faecium D-59): 1.56 µg/mL | MIC (S. faecium D-65): 0.78 µg/mL | MIC (Staph. epidermidis 178): 1.56 µg/mL | MIC (S. epi. 825): 3.12 µg/mL | MIC [2]: 12.5 µg/mL | MIC (Staph. haemolyticus 712): 1.56 µg/mL | MIC [3]: 6.25 µg/mL | MIC (E. coli 9632): >100 µg/mL | MIC (P. vulgaris): >100 µg/mL | MIC (Ps. aeruginosa): >100 µg/mL
